Experimental data: patent US20230167073A1 (Teijin Pharma Limited, priority 2020, published 2023)

Target: T1, Human TRPC6 (Homo sapiens, UniProt Q9Y210)
T1 construct: expressed in transfected cells
T1 sequence (Q9Y210 1-931): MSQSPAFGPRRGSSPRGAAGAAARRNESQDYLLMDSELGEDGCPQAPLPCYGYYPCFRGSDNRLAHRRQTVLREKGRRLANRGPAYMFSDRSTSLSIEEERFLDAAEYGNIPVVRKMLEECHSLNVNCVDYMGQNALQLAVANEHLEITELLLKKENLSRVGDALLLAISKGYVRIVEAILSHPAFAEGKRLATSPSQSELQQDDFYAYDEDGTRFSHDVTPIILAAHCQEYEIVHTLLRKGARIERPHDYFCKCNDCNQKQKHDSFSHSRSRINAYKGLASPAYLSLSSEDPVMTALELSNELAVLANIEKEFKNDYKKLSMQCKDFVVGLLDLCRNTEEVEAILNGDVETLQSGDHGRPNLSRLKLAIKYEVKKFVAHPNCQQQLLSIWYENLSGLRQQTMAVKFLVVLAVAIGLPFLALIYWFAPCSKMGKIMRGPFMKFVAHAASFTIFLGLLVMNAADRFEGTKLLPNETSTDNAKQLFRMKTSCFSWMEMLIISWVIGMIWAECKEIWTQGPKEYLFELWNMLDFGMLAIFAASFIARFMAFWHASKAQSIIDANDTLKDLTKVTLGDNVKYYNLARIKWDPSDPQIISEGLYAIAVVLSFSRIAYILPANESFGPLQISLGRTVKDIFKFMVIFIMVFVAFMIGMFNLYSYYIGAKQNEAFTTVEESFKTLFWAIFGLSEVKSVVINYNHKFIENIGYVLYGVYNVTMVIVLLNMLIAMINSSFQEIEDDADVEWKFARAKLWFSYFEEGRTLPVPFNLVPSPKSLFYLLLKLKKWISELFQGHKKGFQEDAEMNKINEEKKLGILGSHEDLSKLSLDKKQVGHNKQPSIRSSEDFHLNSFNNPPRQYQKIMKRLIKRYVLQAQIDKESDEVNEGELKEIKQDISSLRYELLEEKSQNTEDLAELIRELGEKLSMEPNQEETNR
Test: Evaluation of TRPC6 channel inhibitory activity (1), FLIPR Calcium 5 Assay Kit, OAG stimulation (Compound Nos. 1-1293)
Type: cell-based
Conditions: Human TRPC6 stably-expressing cells, OAG 30 μM, FLIPR Calcium 5 Assay Kit; read-out: Inhibitory activity (pIC50 class) (converted)
Summary of the method: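 The FLIPR signal is maximum fluorescence after 30 μM OAG minus minimum before compound, measured in a human TRPC6 stable line loaded with Calcium 5 dye. Compounds were preincubated 20 min. pIC50 came from four-parameter logistic fitting of inhibition rates and is given as symbol ranges.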

Row | SMILES | IC50 [nM]
1 | Cn1nccc1Oc1cc(C#N)ccc1-c1ccc(CCN)cn1 [compound 300, 4-[5-(2-aminoethyl)pyridin-2-yl]-3-(2-methylpyrazol-3-yl)oxybenzonitrile] | 10 to 1000
2 | Cn1nc(-c2ccccn2)cc1Oc1cc(C#N)ccc1-c1ccc(CN)cn1 [compound 609, 4-[5-(aminomethyl)pyridin-2-yl]-3-(2-methyl-5-pyridin-2-ylpyrazol-3-yl)oxybenzonitrile] | < 10
3 | Cc1nc(OCCC(C)(C)C)cc(Oc2cc(C#N)ccc2-c2ccc(CCN)cc2)n1 [Compound 42, 4-[4-(2-aminoethyl)phenyl]-3-[6-(3,3-dimethylbutoxy)-2-methylpyrimidin-4-yl]oxybenzonitrile] | > 1000
4 | CC(C)n1cc(C(=O)c2cc(C#N)ccc2-c2ncc(CCN)cn2)cn1 [compound 1044, 4-[5-(2-aminoethyl)pyrimidin-2-yl]-3-(1-propan-2-ylpyrazole-4-carbonyl)benzonitrile] | < 10
5 | N#Cc1ccc(-c2ncc(CCN)cn2)c(Oc2cnn(CC(F)(F)F)c2)c1 [compound 911, 4-[5-(2-aminoethyl)pyrimidin-2-yl]-3-[1-(2,2,2-trifluoroethyl)pyrazol-4-yl]oxybenzonitrile] | 10 to 1000
6 | Cc1nc(Oc2cc(C#N)ccc2-n2cc(C(O)CN(C)C)cn2)cc(N2CCOCC2)n1 (centres unmarked) [Compound 105, 4-[4-[2-(dimethylamino)-1-hydroxyethyl]pyrazol-1-yl]-3-(2-methyl-6-morpholin-4-ylpyrimidin-4-yl)oxybenzonitrile] | > 1000
7 | Cc1cc(Oc2nc(C#N)ccc2-c2ccc(CCN)cn2)cc(N2CCOCC2)n1 [compound 1284, 5-[5-(2-aminoethyl)pyridin-2-yl]-6-(2-methyl-6-morpholin-4-ylpyridin-4-yl)oxypyridine-2-carbonitrile] | 10 to 1000
8 | Cc1nc(CN(C)C)cn1Cc1cc(C#N)ccc1-c1ncc(CCN)cn1 [compound 1178, 4-[5-(2-aminoethyl)pyrimidin-2-yl]-3-[[4-[(dimethylamino)methyl]-2-methylimidazol-1-yl]methyl]benzonitrile] | > 1000
9 | Cn1nccc1Oc1cc(C#N)ccc1-c1ncc(CCN)cn1 [compound 311, 4-[5-(2-aminoethyl)pyrimidin-2-yl]-3-(2-methylpyrazol-3-yl)oxybenzonitrile] | > 1000
10 | N#Cc1ccc(-n2cc(CCN)cn2)c(Sc2cnnc(N3CCCCC3)c2)c1 [Compound No. 1246, 4-[4-(2-Aminoethyl)pyrazol-1-yl]-3-(6-piperidin-1-ylpyridazin-4-yl)sulfanylbenzonitrile] | 10 to 1000
11 | CC(C)c1cc(Oc2cc(C#N)ccc2-c2ccc(CN)n3ccnc23)n(C)n1 [compound 711, 4-[5-(aminomethyl)imidazo[1,2-a]pyridin-8-yl]-3-(2-methyl-5-propan-2-ylpyrazol-3-yl)oxybenzonitrile] | < 10
12 | Cc1nc(Oc2cc(C#N)ccc2-c2ccc(CN)cn2)cc(N2CCCC2)n1 [compound 657, 4-[5-(aminomethyl)pyridin-2-yl]-3-(2-methyl-6-pyrrolidin-1-ylpyrimidin-4-yl)oxybenzonitrile] | < 10
13 | Cn1nc(C2CCOCC2)cc1Oc1cc(C#N)ccc1-c1ccc([C@H](O)CN)cn1 [compound 442, 4-[5-[(1S)-2-amino-1-hydroxyethyl]pyridin-2-yl]-3-[2-methyl-5-(oxan-4-yl)pyrazol-3-yl]oxybenzonitrile] | 10 to 1000
14 | Cn1nc(C2CC2)cc1Oc1cc(C#N)ccc1-c1ccc(CN)n2cnnc12 [compound 641, 4-[5-(aminomethyl)-[1,2,4]triazolo[4,3-a]pyridin-8-yl]-3-(5-cyclopropyl-2-methylpyrazol-3-yl)oxybenzonitrile] | 10 to 1000
15 | Cc1nc(Oc2cc(C#N)ccc2-c2ncc(CCN)cn2)cc(-c2ccccn2)n1 [compound 599, 4-[5-(2-aminoethyl)pyrimidin-2-yl]-3-(2-methyl-6-pyridin-2-ylpyrimidin-4-yl)oxybenzonitrile] | < 10
16 | Cc1nc(Oc2cc(C#N)ccc2-c2ncc([C@H](O)CN)cn2)cc(-c2ccccc2)n1 [compound 526, 4-[5-[(1S)-2-amino-1-hydroxyethyl]pyrimidin-2-yl]-3-(2-methyl-6-phenylpyrimidin-4-yl)oxybenzonitrile] | < 10
17 | N#Cc1ccc(-c2ccc(CCN)cn2)c(Oc2cnnc(Cl)c2)c1 [Compound 87, 4-[5-(2-aminoethyl)pyridin-2-yl]-3-(6-chloropyridazin-4-yl)oxybenzonitrile] | > 1000
18 | Cn1nc(-c2ccccn2)cc1Oc1cc(C#N)ccc1-c1ncc(CN)s1 [compound 521, 4-[5-(aminomethyl)-1,3-thiazol-2-yl]-3-(2-methyl-5-pyridin-2-ylpyrazol-3-yl)oxybenzonitrile] | < 10
19 | Cn1nc(C(F)(F)F)cc1-c1cc(Oc2cc(C#N)ccc2-c2ccc(CCN)cc2)cnn1 [Compound 111, 4-[4-(2-aminoethyl)phenyl]-3-[6-[2-methyl-5-(trifluoromethyl)pyrazol-3-yl]pyridazin-4-yl]oxybenzonitrile] | 10 to 1000
20 | Cc1nc(OCC(C)C)cc(Oc2cc(C#N)ccc2-c2ncc(CN)cn2)n1 [compound 846, 4-[5-(aminomethyl)pyrimidin-2-yl]-3-[2-methyl-6-(2-methylpropoxy)pyrimidin-4-yl]oxybenzonitrile] | 10 to 1000
21 | Cc1nc(Sc2cc(C#N)ccc2-n2cc(CCN)cn2)cc(N2CCOCC2)n1 [compound 1251, 4-[4-(2-aminoethyl)pyrazol-1-yl]-3-(2-methyl-6-morpholin-4-ylpyrimidin-4-yl)sulfanylbenzonitrile] | 10 to 1000
22 | Cc1nc(C(C)c2cc(C#N)ccc2-c2ccc(CCN)cc2)cc(N2CCOCC2)n1 (centres unmarked) [Compound No. 1226, 4-[4-(2-Aminoethyl)phenyl]-3-[1-(2-methyl-6-morpholin-4-ylpyrimidin-4-yl)ethyl]benzonitrile] | 10 to 1000

The next lines start with the values.

Row | IC50 [nM] | SMILES
23 | < 10 | CN(CC(F)(F)F)c1cc(Oc2cc(C#N)ccc2-c2ncc(CCN)cn2)n(C)n1 [compound 787, 4-[5-(2-aminoethyl)pyrimidin-2-yl]-3-[2-methyl-5-[methyl(2,2,2-trifluoroethyl)amino]pyrazol-3-yl]oxybenzonitrile]
24 | > 1000 | Cn1cc(C(=O)c2cc(F)ccc2-c2ncc(CCN)cn2)cn1 [compound 1100, [2-[5-(2-aminoethyl)pyrimidin-2-yl]-5-fluorophenyl]-(1-methylpyrazol-4-yl)methanone]
25 | 10 to 1000 | Cc1nc(Oc2cc(C#N)ccc2-c2ncc(CN)cn2)cc(N2C[C@@H](C)O[C@@H](C)C2)n1 [compound 709, 4-[5-(aminomethyl)pyrimidin-2-yl]-3-[6-[(2R,6S)-2,6-dimethylmorpholin-4-yl]-2-methylpyrimidin-4-yl]oxybenzonitrile]
26 | 10 to 1000 | N#Cc1ccc(-c2ncc(CCN)cn2)c(Oc2nnc(C3CC3)s2)c1 [compound 728, 4-[5-(2-aminoethyl)pyrimidin-2-yl]-3-[(5-cyclopropyl-1,3,4-thiadiazol-2-yl)oxy]benzonitrile]
27 | 10 to 1000 | Cc1nc(Oc2cc(C#N)ccc2-c2nc([C@H](O)CN)cs2)cc(-c2ccccc2)n1 [Compound 223, 4-[4-[(1R)-2-amino-1-hydroxyethyl]-1,3-thiazol-2-yl]-3-(2-methyl-6-phenylpyrimidin-4-yl)oxybenzonitrile]
28 | 10 to 1000 | Cc1nc(Oc2cc(C#N)ccc2-n2cc([C@@H](O)CN)cn2)cc(OC2CCC2)n1 [Compound 269, 4-[4-[(1R)-2-amino-1-hydroxyethyl]pyrazol-1-yl]-3-(6-cyclobutyloxy-2-methylpyrimidin-4-yl)oxybenzonitrile]
29 | 10 to 1000 | N#Cc1ccc(-c2ncc(CN)cn2)c(Sc2cnnc(N3CCCC3)c2)c1 [compound 1265, 4-[5-(aminomethyl)pyrimidin-2-yl]-3-(6-pyrrolidin-1-ylpyridazin-4-yl)sulfanylbenzonitrile]
30 | 10 to 1000 | Cc1nc(Oc2cc(C#N)ccc2-c2ncc(CCN)cn2)cc(N2CC(F)C2)n1 [compound 858, 4-[5-(2-aminoethyl)pyrimidin-2-yl]-3-[6-(3-fluoroazetidin-1-yl)-2-methylpyrimidin-4-yl]oxybenzonitrile]
31 | 10 to 1000 | Cc1cc(Oc2cc(C#N)ccc2-c2cnc(CN)cn2)cc(N2CCOCC2)n1 [compound 332, 4-[5-(aminomethyl)pyrazin-2-yl]-3-(2-methyl-6-morpholin-4-ylpyridin-4-yl)oxybenzonitrile]
32 | < 10 | N#Cc1ccc(-c2ncc(CN)cn2)c(Oc2cnnc(N3CCCCC3)c2)c1 [compound 715, 4-[5-(aminomethyl)pyrimidin-2-yl]-3-(6-piperidin-1-ylpyridazin-4-yl)oxybenzonitrile]
